In general, EC50 refers to the concentration giving half of the maximal effect. As a reminder, the IC50 is the midpoint of a concentration-inhibition curve. The term inhibition denotes the relative decrease from the control value, in per cent. Read a low inhibition as a weak effect. One may read the clearance as the volume of plasma or blood freed of the substance per unit of time. Usually Cmax stands for the maximum level reached in the sampled fluid or tissue. The half-life is the time needed for the level to fall by half in the phase considered. As a reminder, the Tmax is the time from dosing to the highest level. As a reminder, the AUC is concentration integrated over time.

This is an account of results in ChEMBL document CHEMBL4765232 (J Med Chem, 2016).

Data set [1] addresses T1, Histone-lysine N-methyltransferase EZH2 (Homo sapiens, UniProt Q15910). Nature of the data set: Inhibition of EZH2 in human HeLa cells assessed as inhibition of trimethylation of H3K27 after 72 hrs by AlphaLISA assay. It is filed as cell-based. On the technique in general: Bead proximity is the source of the signal in Alpha formats.
The target of data set [2] is T1, Histone-lysine N-methyltransferase EZH2. Nature of the data set: Inhibition of wild-type EZH2 in PRC2 complex (unknown origin) using RKQLATKAARK(Me3)SAPATGGVKKP-NH2 peptide substrate preincubated for 30 mins followed by addition of [3H]-SAM measured after 2 hrs by Topcount scintillation proximity assay. For orientation: SPA uses beads or plates that emit light when radiolabelled molecules are held near them.

Data set [3] is described as follows: Intrinsic clearance in human liver microsomes assessed per mg protein. The data set is classed as ADME, Microsome. A general note: Liver microsomes are a subcellular fraction often used to study metabolism.
The target of data set [4] is T2, CYP1A2 (Homo sapiens, UniProt P05177).
T2 sequence (P05177 whole entry): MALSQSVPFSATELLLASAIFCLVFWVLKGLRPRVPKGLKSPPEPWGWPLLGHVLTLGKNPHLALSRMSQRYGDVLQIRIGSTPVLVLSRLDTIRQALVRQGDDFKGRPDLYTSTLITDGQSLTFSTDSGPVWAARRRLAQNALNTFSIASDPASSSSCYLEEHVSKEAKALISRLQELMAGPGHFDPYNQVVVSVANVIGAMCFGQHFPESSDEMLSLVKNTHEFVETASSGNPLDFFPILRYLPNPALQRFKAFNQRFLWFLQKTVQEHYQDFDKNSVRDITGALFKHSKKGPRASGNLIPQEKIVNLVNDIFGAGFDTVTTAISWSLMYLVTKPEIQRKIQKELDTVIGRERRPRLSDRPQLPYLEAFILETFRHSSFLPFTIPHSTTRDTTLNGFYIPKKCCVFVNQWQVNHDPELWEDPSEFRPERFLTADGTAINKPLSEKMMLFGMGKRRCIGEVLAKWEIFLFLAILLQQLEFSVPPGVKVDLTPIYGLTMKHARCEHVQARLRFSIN
Nature of the data set: Inhibition of CYP1A2 (unknown origin) at 10 uM relative to control. The data set is classed as ADME.

Data set [5] is described as follows: Protein binding in rat plasma assessed as bound fraction. The data set is classed as ADME, cell-free. The following applies: read-out: PPB (converted).
Data set [6] is described as follows: Protein binding in human plasma assessed as bound fraction. It is filed as ADME, cell-free. The following applies: read-out: PPB (converted).
Data set [7] in a line: Intrinsic clearance in mouse liver microsomes assessed per mg protein. It is filed as ADME, Microsome.
Data set [8] deals with CYP3A4 (Homo sapiens, UniProt P08684). Description: Inhibition of CYP3A4 (unknown origin) at 10 uM relative to control. It is filed as ADME.
Data set [9] can be described thus: Protein binding in dog plasma assessed as bound fraction. The data set is classed as ADME, cell-free, Canis lupus familiaris. Conditions: read-out: PPB (converted).
Data set [10] is described as follows: Protein binding in mouse plasma assessed as bound fraction. The data set is classed as ADME, cell-free. Conditions: for fraction unbound: read-out: PPB (converted).
The target in data set [11] is CYP2C9 (Homo sapiens, UniProt P11712). Nature of the data set: Inhibition of CYP2C9 (unknown origin) at 10 uM relative to control. It is filed as ADME.
The target of data set [12] is T3, CYP2C8 (Homo sapiens, UniProt P10632).
T3 sequence (P10632 whole entry): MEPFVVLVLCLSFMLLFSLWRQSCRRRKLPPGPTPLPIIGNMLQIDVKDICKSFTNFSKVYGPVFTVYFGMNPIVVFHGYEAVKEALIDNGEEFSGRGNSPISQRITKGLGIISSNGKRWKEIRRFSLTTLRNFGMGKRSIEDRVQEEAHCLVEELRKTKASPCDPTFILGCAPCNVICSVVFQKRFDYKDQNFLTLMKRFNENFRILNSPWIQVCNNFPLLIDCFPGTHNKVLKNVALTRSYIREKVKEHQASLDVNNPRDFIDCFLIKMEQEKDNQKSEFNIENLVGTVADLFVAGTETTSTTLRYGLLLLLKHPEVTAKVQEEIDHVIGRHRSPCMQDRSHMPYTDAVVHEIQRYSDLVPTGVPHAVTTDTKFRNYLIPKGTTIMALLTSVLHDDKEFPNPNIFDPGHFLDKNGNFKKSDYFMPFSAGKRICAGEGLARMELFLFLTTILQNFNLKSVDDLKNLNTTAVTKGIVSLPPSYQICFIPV
Nature of the data set: Inhibition of CYP2C8 (unknown origin) at 10 uM relative to control. The data set is classed as ADME.

The nature of data set [13]: Intrinsic clearance in dog liver microsomes assessed per mg protein. It is filed as ADME, Canis lupus familiaris, Microsome.
A short description of data set [14]: Intrinsic clearance in rat liver microsomes assessed per mg protein. The data set is classed as ADME, Microsome.
Data set [15] addresses CYP2D6 (Homo sapiens, UniProt P10635). Description: Inhibition of CYP2D6 (unknown origin) at 10 uM relative to control. It is filed as ADME.
A short description of data set [16]: Clearance in Balb/c mouse at 1 mg/kg, iv formulated with 5:25:70 DMA/PEG400/20% SBECD. It is filed as ADME, organism-based. The following applies: in vivo.
A short description of data set [17]: Clearance in Balb/c mouse at 1 mg/kg, iv formulated with 5:25:70 DMA/PEG400/20% SBECD relative to liver blood flow. It is filed as ADME, organism-based. The following applies: in vivo.
Data set [18] in a line: Unbound clearance in Balb/c mouse at 1 mg/kg, iv formulated with 5:25:70 DMA/PEG400/20% SBECD. It is filed as ADME, organism-based. Conditions: in vivo.
Data set [19] is described as follows: Oral bioavailability in Balb/c mouse at 100 mg/kg formulated in 0.5 % methyl cellulose maintained at pH 3. Conditions: in vivo, pH 3, 100 mg/kg. The data set is classed as ADME, organism-based.
A short description of data set [20]: Unbound Cmax in Balb/c mouse at 100 mg/kg, po formulated in 0.5 % methyl cellulose maintained at pH 3. The data set is classed as ADME, organism-based. The following applies: in vivo, pH 3, 100 mg/kg.
Data set [21] in a line: Volume of distribution at steady in Balb/c mouse at 1 mg/kg, iv formulated with 5:25:70 DMA/PEG400/20% SBECD. The following applies: in vivo, read-out: Vdss. It is filed as ADME, organism-based.
The nature of data set [22]: Cmax in Balb/c mouse at 100 mg/kg, po formulated in 0.5 % methyl cellulose maintained at pH 3. The data set is classed as ADME, organism-based. Details: route oral, dose 100 mg/kg. The following applies: in vivo, pH 3, 100 mg/kg.
The nature of data set [23]: Half life in Balb/c mouse plasma at 1 mg/kg, iv formulated with 5:25:70 DMA/PEG400/20% SBECD. It is filed as ADME, organism-based.
Data set [24] in a line: Fraction unbound in mouse plasma. It is filed as ADME, cell-free.
A short description of data set [25]: Tmax in Balb/c mouse at 100 mg/kg, po formulated in 0.5 % methyl cellulose maintained at pH 3. It is filed as ADME, organism-based. The following applies: in vivo, pH 3, 100 mg/kg.
A short description of data set [26]: Unbound AUC in Balb/c mouse at 100 mg/kg, po formulated in 0.5 % methyl cellulose maintained at pH 3. The data set is classed as ADME, organism-based. The following applies: in vivo, pH 3, 100 mg/kg.
Data set [27] in a line: AUC (0 to infinity) in Balb/c mouse at 100 mg/kg, po formulated in 0.5 % methyl cellulose maintained at pH 3. On the set-up: time infinity, route oral, dose 100 mg/kg. The following applies: in vivo, pH 3, 100 mg/kg. The data set is classed as ADME, organism-based.

Structures are written as SMILES.

Chain of CYP2D6 (P10635 whole entry): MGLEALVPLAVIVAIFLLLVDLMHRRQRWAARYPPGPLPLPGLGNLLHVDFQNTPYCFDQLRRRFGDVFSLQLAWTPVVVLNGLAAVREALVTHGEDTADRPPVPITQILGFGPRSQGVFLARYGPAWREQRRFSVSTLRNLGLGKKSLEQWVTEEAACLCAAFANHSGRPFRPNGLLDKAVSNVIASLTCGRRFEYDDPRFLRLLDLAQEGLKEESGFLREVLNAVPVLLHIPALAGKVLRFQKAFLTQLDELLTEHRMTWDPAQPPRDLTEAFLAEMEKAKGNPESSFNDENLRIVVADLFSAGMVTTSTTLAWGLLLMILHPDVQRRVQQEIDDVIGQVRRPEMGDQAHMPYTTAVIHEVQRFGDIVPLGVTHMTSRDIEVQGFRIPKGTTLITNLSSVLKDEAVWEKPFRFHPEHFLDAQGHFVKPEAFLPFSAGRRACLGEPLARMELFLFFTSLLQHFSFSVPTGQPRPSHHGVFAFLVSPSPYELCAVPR
T1 sequence (Q15910 whole entry): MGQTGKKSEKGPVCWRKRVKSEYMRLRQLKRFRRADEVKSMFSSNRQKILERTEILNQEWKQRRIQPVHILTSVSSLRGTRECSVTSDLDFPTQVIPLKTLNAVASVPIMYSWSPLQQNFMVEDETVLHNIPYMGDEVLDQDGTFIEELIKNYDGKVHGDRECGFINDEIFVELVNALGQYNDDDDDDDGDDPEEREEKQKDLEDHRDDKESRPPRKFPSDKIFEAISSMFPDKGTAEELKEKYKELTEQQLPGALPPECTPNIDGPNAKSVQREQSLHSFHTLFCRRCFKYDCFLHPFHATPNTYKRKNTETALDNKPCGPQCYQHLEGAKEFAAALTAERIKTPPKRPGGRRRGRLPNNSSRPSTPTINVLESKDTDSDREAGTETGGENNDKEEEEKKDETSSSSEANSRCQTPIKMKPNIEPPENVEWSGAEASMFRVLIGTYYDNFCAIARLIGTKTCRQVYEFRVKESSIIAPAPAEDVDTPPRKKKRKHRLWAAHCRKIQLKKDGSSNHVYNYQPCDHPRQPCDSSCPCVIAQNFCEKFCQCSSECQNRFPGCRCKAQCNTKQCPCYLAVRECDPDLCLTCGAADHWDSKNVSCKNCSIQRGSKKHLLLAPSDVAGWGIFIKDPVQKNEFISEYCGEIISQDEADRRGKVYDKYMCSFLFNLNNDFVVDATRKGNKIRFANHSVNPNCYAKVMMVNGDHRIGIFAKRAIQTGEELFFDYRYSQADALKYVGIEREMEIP
Chain of CYP2C9 (P11712 whole entry): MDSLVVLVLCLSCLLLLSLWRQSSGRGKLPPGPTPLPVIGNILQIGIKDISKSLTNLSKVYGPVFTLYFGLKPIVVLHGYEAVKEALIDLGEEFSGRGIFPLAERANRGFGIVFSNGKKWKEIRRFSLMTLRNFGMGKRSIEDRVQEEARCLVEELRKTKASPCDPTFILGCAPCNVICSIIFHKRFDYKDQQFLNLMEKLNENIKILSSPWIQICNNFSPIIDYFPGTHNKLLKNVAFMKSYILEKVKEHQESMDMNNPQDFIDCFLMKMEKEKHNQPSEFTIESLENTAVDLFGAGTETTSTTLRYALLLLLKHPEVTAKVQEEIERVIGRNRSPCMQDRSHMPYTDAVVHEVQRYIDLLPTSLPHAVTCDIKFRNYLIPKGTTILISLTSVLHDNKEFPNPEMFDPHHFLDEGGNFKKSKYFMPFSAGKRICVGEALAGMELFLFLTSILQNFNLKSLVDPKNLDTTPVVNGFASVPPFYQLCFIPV
Chain of CYP3A4 (P08684 whole entry): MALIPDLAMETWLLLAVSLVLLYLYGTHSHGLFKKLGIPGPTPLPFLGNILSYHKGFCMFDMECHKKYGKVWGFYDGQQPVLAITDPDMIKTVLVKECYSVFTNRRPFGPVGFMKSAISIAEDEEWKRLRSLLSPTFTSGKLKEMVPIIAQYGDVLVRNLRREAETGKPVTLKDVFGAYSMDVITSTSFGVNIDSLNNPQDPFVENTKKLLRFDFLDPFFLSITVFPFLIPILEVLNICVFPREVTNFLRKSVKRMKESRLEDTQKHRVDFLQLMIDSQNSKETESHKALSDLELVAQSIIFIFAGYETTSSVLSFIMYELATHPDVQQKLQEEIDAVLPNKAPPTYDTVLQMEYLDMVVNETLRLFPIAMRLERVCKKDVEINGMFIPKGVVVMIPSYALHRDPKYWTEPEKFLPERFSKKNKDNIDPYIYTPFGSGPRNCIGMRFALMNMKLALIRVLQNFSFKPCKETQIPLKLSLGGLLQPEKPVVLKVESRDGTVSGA

In the case of `COc1cc(C)[nH]c(=O)c1CNC(=O)c1c(C)n([C@H](C)C2CCNCC2)c2ccccc12`, the EC50 in [1] came to 1100 nM. The molecule further showed an IC50 in data set [2] of 2 nM.
Take `COc1cc(C)[nH]c(=O)c1CNC(=O)c1c(C)n([C@H](C)C2CCN(CC(C)(F)F)CC2)c2ccccc12`: the EC50 in [1] is 20 nM. The CLH in data set [3] is 83.8 µL/min; in [7] it was 193 µL/min; in [13] it was 68.9 µL/min; in data set [14], 86.1 µL/min. For the same molecule, the inhibition at 10 µM worked out at 0% in data set [4]; 0% in data set [8]; 5% in data set [11]; 50.9% in data set [12]; 7.7% in data set [15]. Also, the fraction unbound was 0.076 in data set [5], 0.053 in data set [6], 0.064 in [9] and 0.006 in data set [10]. The same molecule came in with an IC50 in [2] below 1 nM.
As to `COc1cc(C)[nH]c(=O)c1CNC(=O)c1c(C)n([C@H](C)C2CCN(C(=O)N(C)C)CC2)c2ccccc12`, the EC50 in data set [1] is 930 nM. In addition, the 50% inhibitory concentration (IC50) in data set [2] is 3.3 nM.
On to `COc1cc(C)[nH]c(=O)c1CNC(=O)c1c(C)n([C@H](C)C2CCN(C3COC3)CC2)c2ccccc12`, for which the EC50 in data set [1] was 150 nM. Moreover, the IC50 in data set [2] is below 1 nM.
In the case of `COc1cc(C)[nH]c(=O)c1CNC(=O)c1c(C)n([C@H](C)C2CCN(C)CC2)c2ccccc12`, the 50% effective concentration (EC50) in [1] was 470 nM. In addition, the concentration for half-maximal inhibition (IC50) in data set [2] was below 1 nM.
Turning to `COc1cc(C)[nH]c(=O)c1CNC(=O)c1c(C)n([C@H](C)C2CCN(CCC(F)(F)F)CC2)c2ccccc12`, the 50% effective concentration (EC50) in data set [1] amounted to 290 nM. The CLH in [3] worked out at 35.4 µL/min; in data set [7], 61.3 µL/min; in data set [13], 35.3 µL/min; in [14] it was 25.7 µL/min. In addition, the inhibition at 10 µM in data set [4] was determined as 19.4%; in [8], 5%; in data set [11], 11.6%; in data set [12], 23.1%; in [15], 17.2%. The fraction unbound was 0.026 in data set [5], 0.041 in data set [6], 0.037 in data set [9] and 0.003 in data set [10]. This molecule also had an IC50 in data set [2] of 2.3 nM.
Turning to `COc1cc(C)[nH]c(=O)c1CNC(=O)c1c(C)n([C@H](C)C2CCN(CC(F)(F)C(F)F)CC2)c2ccccc12`, the EC50 in data set [1] worked out at 38 nM. The same molecule showed an IC50 in data set [2] of 1.6 nM.
The like results for `COc1cc(C)[nH]c(=O)c1CNC(=O)c1c(C)n([C@H](C)C2CCN(C(=O)C(C)C)CC2)c2ccccc12` were, in that order, 420 nM and 2.5 nM.
The like results for `CCOC(=O)CN1CCC([C@@H](C)n2c(C)c(C(=O)NCc3c(OC)cc(C)[nH]c3=O)c3ccccc32)CC1` were, in that order, 260 nM and below 1 nM.
In the same order, the values of `COc1cc(C)[nH]c(=O)c1CNC(=O)c1c(C)n([C@H](C)C2CCN(C(=O)OC(C)C)CC2)c2ccccc12` are 110 nM and below 1 nM.
`COc1cc(C)[nH]c(=O)c1CNC(=O)c1c(C)n([C@H](C)C2CCN(CC(F)F)CC2)c2ccccc12` showed a clearance in data set [16] of 74.2 mL/min/kg. The EC50 in data set [1] amounted to 39 nM. The molecule further had a CL in [17] of 82%. For the same molecule, the CL free in [18] was 3372 mL/min/kg. The inhibition at 10 µM in data set [4] is 28.6%; in [8] it was 25.2%; in data set [11] it was 25.4%; in data set [12] it was 18.9%; in data set [15], 26.1%. The fraction unbound in data set [5] is 0.169; in data set [6], 0.167; in data set [9] it was 0.357. Besides, the IC50 in data set [2] worked out at 1.8 nM. In [19], the F stood at 91.6%. Further, the fCmax in data set [20] was determined as 1.15 µM. In [21], the Vd is 1.1 L/kg. For the same molecule, the CLH was found to be 131 µL/min in data set [7], 52.4 µL/min in [13] and 71.3 µL/min in [14]. The same molecule showed a peak concentration (Cmax) in data set [22] of 52.1 µM. This molecule had a half-life in [23] of 24.1 min. Also, the Fu in data set [24] was 0.022%. The time of peak concentration (Tmax) in data set [25] came out at 15 min. In [26], this molecule yielded a fAUC of 0.924 µM·h. In addition, the AUC in [27] is 42.01 µM·h. The PPB in data set [10] is reported as 97.8%.
